According to patent EP0326331B1, “Substituted quinolines and cinnolines” (Dow AgroSciences LLC, priority 1988, dated 1989):

Assays:
Format in all cases: in vivo
[1] = system: Pseudoperonospora cubensis (downy mildew); assay: Test 1 greenhouse foliar spray screen, downy mildew on squash; settings: disease control rating, foliar spray on squash, 400 ppm (+++ at 100 ppm)
[2] = system: southern armyworm (Spodopetra eridania Cramer); assay: Mite/insect screen, SAW; settings: Spodoptera eridania, percent mortality, SAW, read-out: SAW RESULTS %; for mortality at 200 ppm: SM & MA RATE 200 PPM; for mortality at 400 ppm: SM & MA RATE 400 PPM
Method in brief: (§1)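 Compounds dissolved in acetone/alcohol (50:50) with TOXIMUL R and S emulsifiers, diluted in water to test concentrations, and sprayed to runoff on both leaf surfaces at 10 psi, then dried 1 h. For armyworm, excised treated leaves were offered to larvae; percent mortality scored after standard exposure periods.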

[3] = system: Twospotted spider mites (Tetranychus urticae Koch); assay: Mite/insect screen, SM; settings: Tetranychus urticae, percent mortality, SAW, read-out: SM RESULTS %; for mortality at 200 ppm: SM & MA RATE 200 PPM; for mortality at 400 ppm: SM & MA RATE 400 PPM
Method in brief: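 Compounds dissolved in 50:50 acetone/alcohol containing sulfonate/nonionic emulsifier blends, then diluted with water to the indicated concentrations. Leaves sprayed on both surfaces to runoff at 10 psi and dried one hour. Percent mortality scored after standard exposure periods.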

[4] = system: Septoria tritici (leaf blotch); assay: Test 1 greenhouse foliar spray screen, leaf blotch on wheat; settings: disease control rating, foliar spray on wheat, 400 ppm (+++ at 100 ppm)
[5] = system: Puccinia recondita tritici (leaf rust); assay: Test 1 greenhouse foliar spray screen, leaf rust on wheat; settings: disease control rating, foliar spray on wheat, 400 ppm (+++ at 100 ppm)
[6] = system: Venturia inaequalis (apple scab); assay: Test 1 greenhouse foliar spray screen, apple scab on apple seedling; settings: disease control rating, foliar spray on apple seedling, 400 ppm (+++ at 100 ppm)
[7] = system: corn rootworm; assay: Mite/insect screen, CRW; settings: percent mortality, read-out: CRW RESULTS %; for mortality at 12 ppm: CRW RATE 12.00 PPM; for mortality at 24 ppm: CRW RATE 24.00 PPM
Method in brief: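 Compounds dissolved in 50:50 acetone/alcohol with TOXIMUL R and S emulsifiers (23 and 13 g/L), then diluted in water to the stated test concentrations. Percent mortality of corn rootworm scored after standard exposure periods.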

[8] = system: Pyricularia oryzae (rice blast); assay: whole plant or invertebrate; settings: disease control rating, foliar spray on rice, 400 ppm (+++ at 100 ppm)
[9] = system: Botrytis cinerea (gray mold); assay: Test 1 greenhouse foliar spray screen, gray mold on grape berries; settings: disease control rating, spray on grape berries, 400 ppm (+++ at 100 ppm)
[10] = system: melon aphids (Aphis gossypii Glover); assay: Mite/insect screen, MA; settings: Aphis gossypii, percent mortality, SAW, read-out: MA RESULTS %; for mortality at 200 ppm: SM & MA RATE 200 PPM; for mortality at 400 ppm: SM & MA RATE 400 PPM
Method in brief: as §1

[11] = system: Erysiphe graminis tritici (powdery mildew); assay: Test 1 greenhouse foliar spray screen, powdery mildew on wheat; settings: disease control rating, foliar spray on wheat, 400 ppm (+++ at 100 ppm)
[12] = system: Cercospora beticola (leaf spot); assay: Test 1 greenhouse foliar spray screen, leaf spot on sugar beet; settings: disease control rating, foliar spray on sugar beet, 400 ppm (+++ at 100 ppm)

Structure (SMILES)	DOWN MDEW [1]	mortality at 200 ppm [2]	mortality at 400 ppm [2]	mortality at 200 ppm [3]	mortality at 400 ppm [3]	LEAF BLOT [4]	LEAF RUST [5]	APPL SCAB [6]	mortality at 12 ppm [7]	mortality at 24 ppm [7]	RICE BLAST [8]	GRAY MOLD [9]	mortality at 200 ppm [10]	mortality at 400 ppm [10]	POWD MDEW [11]	LEAF SPOT [12]
CC(=O)N(CCc1ccc(Cl)cc1)c1ccnc2cc(Cl)ccc12 [Example 124, N-[2-(4-chlorophenyl)ethyl]-N-(7-chloro-4-quinolinyl)acetamide]	- (0-19% control at 400 ppm)	0%	0%	0%	0%	- (0-19% control at 400 ppm)	+ (20-89% control at 400 ppm)	- (0-19% control at 400 ppm)	0%	0%	+ (20-89% control at 400 ppm)	- (0-19% control at 400 ppm)	0%	0%	+++ (90-100% control at 100 ppm)	- (0-19% control at 400 ppm)
CC(=O)N(CCc1cccc(C(F)(F)F)c1)c1ccnc2cc(Cl)ccc12 [Example 126, N-(7-chloro-4-quinolinyl)-N-[2-[3-(trifluoromethyl)phenyl]ethyl]acetamide]	+ (20-89% control at 400 ppm)	0%	0%	0%	0%	+ (20-89% control at 400 ppm)	+ (20-89% control at 400 ppm)	- (0-19% control at 400 ppm)	0%	0%	+++ (90-100% control at 100 ppm)	- (0-19% control at 400 ppm)	0%	0%	++ (90-100% control at 400 ppm)	- (0-19% control at 400 ppm)
CC(=O)N(CCc1ccc(C(C)C)cc1)c1ccnc2c(F)cccc12 [Example 129, N-[2-[4-(i-propyl)phenyl]ethyl]-N-(8-fluoro-4-quinolinyl)acetamide]	+ (20-89% control at 400 ppm)	0%	0%	0%	0%	- (0-19% control at 400 ppm)	++ (90-100% control at 400 ppm)	+ (20-89% control at 400 ppm)	0%	0%	+ (20-89% control at 400 ppm)	- (0-19% control at 400 ppm)	0%	0%	- (0-19% control at 400 ppm)	- (0-19% control at 400 ppm)
Fc1cccc2c(NCCCc3ccc(Cl)cc3)ccnc12 [Example 135, N-[3-(4-chlorophenyl)propyl]-8-fluoro-4-quinolinamine]	+++ (90-100% control at 100 ppm)	0%	0%	0%	0%	+ (20-89% control at 400 ppm)	- (0-19% control at 400 ppm)	- (0-19% control at 400 ppm)	0%	0%	- (0-19% control at 400 ppm)	- (0-19% control at 400 ppm)	0%	0%	- (0-19% control at 400 ppm)	- (0-19% control at 400 ppm)
Clc1ccc(CCCNc2ccnc3cc(Cl)ccc23)cc1 [Example 136, N-[3-(4-chlorophenyl)propyl]-7-chloro-4-quinolinamine]	+++ (90-100% control at 100 ppm)	0%	0%	0%	0%	- (0-19% control at 400 ppm)	- (0-19% control at 400 ppm)	- (0-19% control at 400 ppm)	0%	0%	- (0-19% control at 400 ppm)	- (0-19% control at 400 ppm)	0%	0%	+ (20-89% control at 400 ppm)	- (0-19% control at 400 ppm)
c1ccc(CCCNc2ccnc3ccccc23)cc1 [Example 139, N-(3-phenylpropyl)-4-quinolinamine]	++ (90-100% control at 400 ppm)	0%	–	0%	–	- (0-19% control at 400 ppm)	+ (20-89% control at 400 ppm)	- (0-19% control at 400 ppm)	0%	–	+ (20-89% control at 400 ppm)	- (0-19% control at 400 ppm)	0%	–	+ (20-89% control at 400 ppm)	- (0-19% control at 400 ppm)
Fc1cccc2c(NCCCCc3ccc(Cl)cc3)ccnc12 [Example 140, 8-fluoro-N-[4-(4-chlorophenyl)butyl]-4-quinolinamine]	+++ (90-100% control at 100 ppm)	0%	60%	0%	0%	+++ (90-100% control at 100 ppm)	+++ (90-100% control at 100 ppm)	+ (20-89% control at 400 ppm)	0%	0%	+++ (90-100% control at 100 ppm)	- (0-19% control at 400 ppm)	0%	0%	+ (20-89% control at 400 ppm)	+++ (90-100% control at 100 ppm)
Fc1cccc2c(NCCC3=CCCCC3)ccnc12 [Example 143, N-[2-(1-cyclohexenyl)ethyl]-8-fluoro-4-quinolinamine]	+++ (90-100% control at 100 ppm)	0%	0%	0%	0%	+ (20-89% control at 400 ppm)	+++ (90-100% control at 100 ppm)	- (0-19% control at 400 ppm)	0%	0%	++ (90-100% control at 400 ppm)	- (0-19% control at 400 ppm)	0%	0%	++ (90-100% control at 400 ppm)	+ (20-89% control at 400 ppm)
